Consider two compounds from ChEMBL document CHEMBL5647694, “Novel orally bioavailable EZH1/2 dual inhibitors with greater antitumor efficacy than an EZH2 selective inhibitor” (Cancer Sci, 2017).

For orientation: inhibition means the relative decrease from the control value, in per cent.

In experiment [1] the target is Sphingosine kinase 2 (Homo sapiens) (UniProt Q9NRA0). The experiment is described as follows: Inhibition of N-terminal GST-fused full length human SPHK2 (1 to 618 residues) expressed in baculovirus expression system using Sphingosine as substrate at 1 uM in presence of ATP by Mobility shift assay.
Experiment [2] concerns the target Dual specificity tyrosine-phosphorylation-regulated kinase 1A (Homo sapiens) (UniProt Q13627). The experiment is described as follows: Inhibition of N-terminal GST-fused full length human DYRK1A (1 to 763 residues) expressed in baculovirus expression system using DYRKtide-F as substrate at 1 uM in presence of ATP by Mobility shift assay.
Experiment [3] has as its target Vascular endothelial growth factor receptor 3 (Homo sapiens) (UniProt P35916). Put plainly: Inhibition of N-terminal GST-fused human FLT4 cytoplasmic domain (798 to 1298 residues) expressed in baculovirus-infected Sf21 cells using CSKtide as substrate at 1 uM in presence of ATP by Mobility shift assay.
The target in experiment [4] is MAP kinase-interacting serine/threonine-protein kinase 2 (Homo sapiens) (UniProt Q9HBH9). The experiment is described as follows: Inhibition of N-terminal GST-fused full length human MNK2 (1 to 465 residues) expressed in baculovirus expression system using RS peptide as substrate at 1 uM in presence of ATP by Mobility shift assay.
Experiment [5] has as its target Muscle, skeletal receptor tyrosine-protein kinase (Homo sapiens) (UniProt O15146). The experiment is described as follows: Inhibition of N-terminal GST-fused human MUSK catalytic domain (527 to 869 residues) expressed in baculovirus-infected Sf21 cells using CSKtide as substrate at 1 uM in presence of ATP by Mobility shift assay.
Experiment [6] deals with Ephrin type-A receptor 6 (Homo sapiens) (UniProt Q9UF33). Put plainly: Inhibition of N-terminal GST-fused human EPHA6 cytoplasmic domain (683 to 1130 residues) expressed in baculovirus-infected Sf21 cells using Blk/Lyntide as substrate at 1 uM in presence of ATP by Mobility shift assay.
In experiment [7] the target is Calcium/calmodulin-dependent protein kinase type 1D (Homo sapiens) (UniProt Q8IU85). The experiment is described as follows: Inhibition of N-terminal GST-tagged full length human CAMK1d (1 to 357 residues) expressed in baculovirus-infected Sf21 cells using Synapsin peptide as substrate at 1 uM in presence of ATP by Mobility shift assay.
In experiment [8] the target is Protein kinase C epsilon type (Homo sapiens) (UniProt Q02156). Put plainly: Inhibition of N-terminal GST-fused human full length PKC-epsilon (1 to 737 residues ) expressed in baculovirus expression system using PKC peptide as substrate at 1 uM in presence of ATP by Mobility shift assay.
Sequence of Protein kinase C epsilon type (Homo sapiens) (Q02156 whole entry, the tested form may be a part): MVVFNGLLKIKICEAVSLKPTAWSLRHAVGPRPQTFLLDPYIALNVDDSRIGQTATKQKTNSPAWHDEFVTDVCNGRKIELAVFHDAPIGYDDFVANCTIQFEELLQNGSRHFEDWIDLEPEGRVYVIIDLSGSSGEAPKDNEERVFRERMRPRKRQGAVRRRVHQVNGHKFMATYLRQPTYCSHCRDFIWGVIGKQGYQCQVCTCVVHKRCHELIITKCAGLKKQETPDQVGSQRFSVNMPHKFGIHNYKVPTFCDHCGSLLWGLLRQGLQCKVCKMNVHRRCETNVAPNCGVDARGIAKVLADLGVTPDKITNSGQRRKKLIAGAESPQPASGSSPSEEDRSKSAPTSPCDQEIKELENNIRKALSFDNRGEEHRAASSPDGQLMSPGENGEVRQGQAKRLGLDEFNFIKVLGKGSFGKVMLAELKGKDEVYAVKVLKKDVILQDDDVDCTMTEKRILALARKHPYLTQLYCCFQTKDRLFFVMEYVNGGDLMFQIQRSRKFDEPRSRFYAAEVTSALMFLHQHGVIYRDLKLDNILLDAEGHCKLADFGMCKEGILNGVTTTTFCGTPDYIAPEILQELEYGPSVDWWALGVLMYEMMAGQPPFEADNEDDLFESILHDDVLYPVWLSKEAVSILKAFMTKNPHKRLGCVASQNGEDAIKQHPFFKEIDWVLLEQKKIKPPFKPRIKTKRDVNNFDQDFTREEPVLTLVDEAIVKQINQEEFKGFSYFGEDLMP
Experiment [9] has as its target Mitogen-activated protein kinase 7 (Homo sapiens) (UniProt Q13164). The experiment is described as follows: Inhibition of N-terminal GST-fused human ERK5 catalytic domain (1 to 398 residues) expressed in Escherichia coli expression system using EGFR-derived peptide as substrate at 1 uM in presence of ATP by Mobility shift assay.
Experiment [10] concerns the target Serine/threonine-protein kinase PLK3 (Homo sapiens) (UniProt Q9H4B4). The experiment is described as follows: Inhibition of N-terminal GST-fused human PLK3 catalytic domain (58 to 340 residues) expressed in baculovirus expression system using CDC25ctide as substrate at 1 uM in presence of ATP by Mobility shift assay.
Experiment [11] has as its target RAC-gamma serine/threonine-protein kinase (Homo sapiens) (UniProt Q9Y243). The experiment is described as follows: Inhibition of N-terminal GST-tagged human AKT3 catalytic domain (108 to 479 residues) co-expressed with His-tagged PDK1 (1 to 556 residues) in baculovirus-infected Sf21 cells using Crosstide as substrate at 1 uM in presence of ATP by Mobility shift assay.

Experiment [12] has as its target Dual specificity tyrosine-phosphorylation-regulated kinase 2 (Homo sapiens) (UniProt Q92630). The experiment is described as follows: Inhibition of N-terminal GST-fused full length human DYRK2 (1 to 528 residues) expressed in baculovirus expression system using DYRKtide-F as substrate at 1 uM in presence of ATP by Mobility shift assay.
For experiment [13], the target named is Serine/threonine-protein kinase WNK3 (Homo sapiens) (UniProt Q9BYP7). The experiment is described as follows: Inhibition of N-terminal GST-fused human WNK3 catalytic domain (1 to 434 residues) expressed in baculovirus expression system using SPAKtide as substrate at 1 uM in presence of ATP by Mobility shift assay.
Experiment [14] addresses Serine/threonine-protein kinase pim-2 (Homo sapiens) (UniProt Q9P1W9). The experiment is described as follows: Inhibition of N-terminal GST-tagged full length human PIM2 (1 to 311 residues) expressed in baculovirus expression system using S6K2 peptide as substrate at 1 uM in presence of ATP by Mobility shift assay.
In experiment [15] the target is Glycogen synthase kinase-3 beta (Homo sapiens) (UniProt P49841). Put plainly: Inhibition of N-terminal GST-fused full length human GSK3-beta (1 to 420 residues) expressed in baculovirus expression system using CREBtide-p as substrate at 1 uM in presence of ATP by Mobility shift assay.
The target in experiment [16] is Mitogen-activated protein kinase 11 (Homo sapiens) (UniProt Q15759). The experiment is described as follows: Inhibition of N-terminal GST-fused full length human p38beta (1 to 364 residues) expressed in Escherichia coli expression system using Modified Erktide as substrate at 1 uM in presence of ATP by Mobility shift assay.
Experiment [17] deals with cAMP-dependent protein kinase catalytic subunit PRKX (Homo sapiens) (UniProt P51817). The experiment is described as follows: Inhibition of N-terminal GST-fused full length human PRKX (1 to 358 residues) expressed in baculovirus expression system using Kemptide as substrate at 1 uM in presence of ATP by Mobility shift assay.
Experiment [18] concerns the target Serine/threonine-protein kinase SIK1 (Homo sapiens) (UniProt P57059). The experiment is described as follows: Inhibition of N-terminal GST-fused full length human SIK (1 to 783 residues) expressed in baculovirus expression system using AMARA peptide as substrate at 1 uM in presence of ATP by Mobility shift assay.
Experiment [19] has as its target Death-associated protein kinase 1 (Homo sapiens) (UniProt P53355). The experiment is described as follows: Inhibition of N-terminal GST-fused human DAPK1 catalytic domain (1 to 289 residues) expressed in baculovirus expression system using DAPK1tide as substrate at 1 uM in presence of ATP by Mobility shift assay.
The target of experiment [20] is Tyrosine-protein kinase BTK (Homo sapiens) (UniProt Q06187). The experiment is described as follows: Inhibition of N-terminal GST-fused full length human BTK (2 to 659 residues) expressed in baculovirus infected Sf21 cells using Srctide as substrate at 1 uM in presence of ATP by Mobility shift assay.
Experiment [21] addresses Inhibitor of nuclear factor kappa-B kinase subunit alpha (Homo sapiens) (UniProt O15111). The experiment is described as follows: Inhibition of N-terminal GST-fused full length human IKK-alpha (1 to 745 residues) expressed in baculovirus expression system using IkBalpha peptide as substrate at 1 uM in presence of ATP by IMAP assay.
In experiment [22] the target is Serine/threonine-protein kinase PLK2 (Homo sapiens) (UniProt Q9NYY3). Put plainly: Inhibition of N-terminal GST-fused full length human PLK2 (1 to 685 residues) expressed in baculovirus expression system using CHK2 peptide as substrate at 1 uM in presence of ATP by IMAP.

The structures appear in SMILES notation.

Sequence of Serine/threonine-protein kinase SIK1 (Homo sapiens) (P57059 whole entry, the tested form may be a part): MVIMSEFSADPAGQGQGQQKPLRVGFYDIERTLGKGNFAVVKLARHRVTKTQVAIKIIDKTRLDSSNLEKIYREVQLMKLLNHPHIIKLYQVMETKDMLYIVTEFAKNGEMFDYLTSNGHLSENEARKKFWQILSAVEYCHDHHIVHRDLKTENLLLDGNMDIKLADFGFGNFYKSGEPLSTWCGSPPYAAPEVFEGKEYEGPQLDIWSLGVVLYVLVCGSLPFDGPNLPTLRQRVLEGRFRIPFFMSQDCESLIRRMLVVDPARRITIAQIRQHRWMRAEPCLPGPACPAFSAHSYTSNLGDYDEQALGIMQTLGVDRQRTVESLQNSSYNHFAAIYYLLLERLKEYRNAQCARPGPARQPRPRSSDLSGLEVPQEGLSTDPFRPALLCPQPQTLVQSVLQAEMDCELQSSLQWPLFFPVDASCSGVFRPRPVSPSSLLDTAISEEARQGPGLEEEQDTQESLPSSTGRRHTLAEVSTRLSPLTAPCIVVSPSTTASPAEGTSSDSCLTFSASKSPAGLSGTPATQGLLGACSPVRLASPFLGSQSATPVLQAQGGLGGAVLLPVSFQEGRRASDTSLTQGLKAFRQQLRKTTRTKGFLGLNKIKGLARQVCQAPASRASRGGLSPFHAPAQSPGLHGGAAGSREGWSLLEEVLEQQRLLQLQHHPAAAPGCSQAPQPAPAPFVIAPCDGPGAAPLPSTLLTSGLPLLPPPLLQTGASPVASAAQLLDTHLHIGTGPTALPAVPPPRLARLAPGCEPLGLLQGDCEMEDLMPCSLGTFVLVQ
Sequence of Dual specificity tyrosine-phosphorylation-regulated kinase 2 (Homo sapiens) (Q92630 whole entry, the tested form may be a part): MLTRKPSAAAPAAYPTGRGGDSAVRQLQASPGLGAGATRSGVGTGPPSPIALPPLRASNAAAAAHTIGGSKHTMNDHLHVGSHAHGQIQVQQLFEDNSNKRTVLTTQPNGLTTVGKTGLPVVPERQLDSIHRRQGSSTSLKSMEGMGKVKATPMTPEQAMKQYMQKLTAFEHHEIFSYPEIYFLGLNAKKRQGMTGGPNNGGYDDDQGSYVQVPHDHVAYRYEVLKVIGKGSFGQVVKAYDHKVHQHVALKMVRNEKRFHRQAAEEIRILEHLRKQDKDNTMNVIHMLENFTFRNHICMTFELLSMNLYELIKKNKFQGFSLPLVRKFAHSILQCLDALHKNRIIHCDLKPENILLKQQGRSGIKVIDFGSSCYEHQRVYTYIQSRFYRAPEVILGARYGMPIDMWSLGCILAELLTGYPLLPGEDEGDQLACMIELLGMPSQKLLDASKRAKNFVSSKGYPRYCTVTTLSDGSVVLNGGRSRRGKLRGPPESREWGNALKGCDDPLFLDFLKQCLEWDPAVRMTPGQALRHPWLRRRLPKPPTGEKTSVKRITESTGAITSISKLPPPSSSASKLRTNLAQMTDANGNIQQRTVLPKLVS
Sequence of Inhibitor of nuclear factor kappa-B kinase subunit alpha (Homo sapiens) (O15111 whole entry, the tested form may be a part): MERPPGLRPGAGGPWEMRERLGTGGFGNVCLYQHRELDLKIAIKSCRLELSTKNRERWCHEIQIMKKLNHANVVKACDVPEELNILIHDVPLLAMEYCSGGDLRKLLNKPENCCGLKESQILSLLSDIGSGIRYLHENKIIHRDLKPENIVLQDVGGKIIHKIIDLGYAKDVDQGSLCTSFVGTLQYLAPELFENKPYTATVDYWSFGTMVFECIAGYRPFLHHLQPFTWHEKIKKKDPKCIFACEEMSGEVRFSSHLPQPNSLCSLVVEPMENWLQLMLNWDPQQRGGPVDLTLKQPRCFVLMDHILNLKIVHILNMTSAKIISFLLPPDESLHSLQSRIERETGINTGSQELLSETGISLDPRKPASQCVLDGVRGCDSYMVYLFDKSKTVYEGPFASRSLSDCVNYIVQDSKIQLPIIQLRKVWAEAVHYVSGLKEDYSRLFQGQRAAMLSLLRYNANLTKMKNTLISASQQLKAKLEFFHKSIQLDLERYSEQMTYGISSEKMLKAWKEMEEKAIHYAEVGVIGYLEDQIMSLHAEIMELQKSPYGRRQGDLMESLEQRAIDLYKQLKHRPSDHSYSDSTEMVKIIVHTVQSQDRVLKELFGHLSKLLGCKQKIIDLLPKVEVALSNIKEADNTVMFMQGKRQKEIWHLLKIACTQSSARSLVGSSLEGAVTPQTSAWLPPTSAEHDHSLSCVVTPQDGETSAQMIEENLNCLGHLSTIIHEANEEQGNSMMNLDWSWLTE
Sequence of Vascular endothelial growth factor receptor 3 (Homo sapiens) (P35916 whole entry, the tested form may be a part): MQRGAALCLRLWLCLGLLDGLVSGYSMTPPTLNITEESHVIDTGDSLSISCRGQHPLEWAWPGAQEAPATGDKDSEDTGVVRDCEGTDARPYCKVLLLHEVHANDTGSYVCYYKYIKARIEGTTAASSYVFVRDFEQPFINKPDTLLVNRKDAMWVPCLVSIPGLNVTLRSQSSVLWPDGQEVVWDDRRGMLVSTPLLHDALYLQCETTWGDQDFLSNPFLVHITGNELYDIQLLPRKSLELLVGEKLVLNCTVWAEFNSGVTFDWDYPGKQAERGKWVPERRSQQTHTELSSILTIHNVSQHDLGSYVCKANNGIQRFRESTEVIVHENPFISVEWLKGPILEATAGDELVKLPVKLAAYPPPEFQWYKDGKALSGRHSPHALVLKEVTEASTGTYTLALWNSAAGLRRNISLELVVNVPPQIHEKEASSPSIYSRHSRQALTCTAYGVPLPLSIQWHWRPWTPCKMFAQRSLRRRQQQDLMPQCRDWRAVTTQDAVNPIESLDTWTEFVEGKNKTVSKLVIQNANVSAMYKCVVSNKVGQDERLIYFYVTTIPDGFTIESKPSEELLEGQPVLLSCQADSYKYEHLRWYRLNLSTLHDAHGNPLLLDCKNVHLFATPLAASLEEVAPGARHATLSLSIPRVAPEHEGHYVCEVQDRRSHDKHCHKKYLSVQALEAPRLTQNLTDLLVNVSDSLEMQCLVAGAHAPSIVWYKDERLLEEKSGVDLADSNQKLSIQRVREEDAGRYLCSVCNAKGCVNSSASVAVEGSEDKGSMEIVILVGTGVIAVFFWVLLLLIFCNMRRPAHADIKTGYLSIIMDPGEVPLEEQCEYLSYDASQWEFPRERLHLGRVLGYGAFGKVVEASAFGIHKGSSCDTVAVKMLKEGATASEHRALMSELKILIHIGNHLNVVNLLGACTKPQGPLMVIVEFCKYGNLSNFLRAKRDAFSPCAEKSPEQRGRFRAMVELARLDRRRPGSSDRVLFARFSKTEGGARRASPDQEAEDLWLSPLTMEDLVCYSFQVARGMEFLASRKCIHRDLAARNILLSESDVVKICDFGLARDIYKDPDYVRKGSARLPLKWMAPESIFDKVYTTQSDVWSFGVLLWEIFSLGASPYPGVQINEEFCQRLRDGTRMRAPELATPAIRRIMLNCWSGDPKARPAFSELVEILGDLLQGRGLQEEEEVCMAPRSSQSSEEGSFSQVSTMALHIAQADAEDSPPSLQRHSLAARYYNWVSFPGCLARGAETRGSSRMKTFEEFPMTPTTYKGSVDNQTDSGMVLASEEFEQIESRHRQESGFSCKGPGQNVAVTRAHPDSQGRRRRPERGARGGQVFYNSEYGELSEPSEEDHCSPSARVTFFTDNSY
Sequence of Mitogen-activated protein kinase 7 (Homo sapiens) (Q13164 2-816 limits assumed): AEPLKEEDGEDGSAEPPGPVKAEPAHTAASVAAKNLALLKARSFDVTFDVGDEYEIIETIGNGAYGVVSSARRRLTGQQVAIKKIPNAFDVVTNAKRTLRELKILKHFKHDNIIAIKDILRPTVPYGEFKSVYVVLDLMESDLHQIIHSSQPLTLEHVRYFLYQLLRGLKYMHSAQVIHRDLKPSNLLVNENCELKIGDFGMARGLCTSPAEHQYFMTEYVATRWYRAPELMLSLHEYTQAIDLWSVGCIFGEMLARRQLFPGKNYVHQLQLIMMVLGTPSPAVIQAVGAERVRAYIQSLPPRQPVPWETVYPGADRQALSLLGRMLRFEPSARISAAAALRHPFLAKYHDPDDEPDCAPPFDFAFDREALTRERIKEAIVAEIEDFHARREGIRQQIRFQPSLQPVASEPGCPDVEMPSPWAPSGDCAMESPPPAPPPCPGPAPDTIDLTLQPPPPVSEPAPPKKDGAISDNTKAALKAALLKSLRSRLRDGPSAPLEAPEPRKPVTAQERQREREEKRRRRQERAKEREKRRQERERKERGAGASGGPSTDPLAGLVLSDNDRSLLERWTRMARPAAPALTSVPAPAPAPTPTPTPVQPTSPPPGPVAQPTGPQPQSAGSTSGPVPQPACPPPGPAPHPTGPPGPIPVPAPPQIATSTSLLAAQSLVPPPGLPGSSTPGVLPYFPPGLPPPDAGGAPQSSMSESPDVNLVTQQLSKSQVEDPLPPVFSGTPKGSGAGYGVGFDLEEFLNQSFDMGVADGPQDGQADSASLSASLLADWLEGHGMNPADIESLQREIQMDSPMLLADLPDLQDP

In the case of `Cc1cc(C)c(CNC(=O)c2cc(Br)c3c(c2C)O[C@@](C)([C@H]2CC[C@H](N(C)C)CC2)O3)c(=O)[nH]1`, the inhibition was 12.7% in experiment [1]; -8.2% in [2]; -1.5% in [3]; 7.2% in [4]; -5.1% in experiment [5]; -3.8% in experiment [6]. The inhibition in [7] is -3.6%; in experiment [8], 17%; in [9], -2.5%; in [10] it was -1.3%; in experiment [11], -6.2%; in experiment [12] it was -2.3%. For the same compound, the inhibition in experiment [13] was -9.2%; in experiment [14], -3.9%; in experiment [15] it was -3.3%; in experiment [16] it was -3.1%; in [17], -0.6%; in experiment [18], -3.1%. The inhibition in experiment [19] was 3.4%; in experiment [20] it was -10%; in [21], -0.6%; in [22], 11.8%.
On to `Cc1cc(C)c(CNC(=O)c2cc(Cl)c3c(c2C)O[C@@](C)([C@H]2CC[C@H](N(C)C)CC2)O3)c(=O)[nH]1` [VALEMETOSTAT], for which the inhibition in experiment [1] is 8%; in [2], -3.4%; in experiment [3], -1.9%; in experiment [4] it was 8.7%; in experiment [5] it was -5.5%; in experiment [6], 0.1%. The inhibition in experiment [7] was -3.5%; in experiment [8] it was 16.4%; in experiment [9], -2.3%; in experiment [10] it was -7.8%; in experiment [11] it was -5.3%; in experiment [12], 6%. Further, the inhibition in experiment [13] was -3.9%; in experiment [14] it was -1.4%; in experiment [15], -7.1%; in experiment [16], -5.6%; in experiment [17], -1.9%; in [18], 6.2%. The inhibition is 14.9% in experiment [19], -9% in experiment [20], 11.5% in experiment [21] and 4.8% in experiment [22].
